Measured values as given in patent publication US20060134228A1, “Medicine for prevention of and treatment for amyloidosis” (Nipro Corporation, priority 2002, published 2006).

Target: T1, transthyretin purified from human serum (Homo sapiens, UniProt P02766)
T1 construct: Using transthyretin purified from human serum as a transthyretin-containing solution; from tissue; host or cells: human serum
Assay: Quantitative ratio of transthyretin tetramer and transthyretin monomer (gel separation chromatography, Coomassie stain)
Format: biochemical
Settings: metal chloride 80 μg/mL, transthyretin 0.2 mg/mL, incubated at 37° C.
Method: Using transthyretin purified from human serum as a transthyretin-containing solution, the purity thereof was confirmed by electrophoresis. The transthyretin-containing solution (10 mg/mL) was dissolved in a buffer solution to obtain a concentration of 0.2 mg/mL, and chromium chloride (80 μg/mL) was added. The pH of the buffer solution was adjusted to a pH necessary for each experiment using sodium hydroxide or hydrochloric acid. The above-described solution was incubated at 37° C. to produce amyloid fiber.
The transthyretin tetramer and the transthyretin monomer were separated by gel separation chromatography, immersed in the Coomassie Brilliant Blue stain, and examined for color developing intensity. Likewise, measurements were conducted for a comparative example wherein the metal compound added to the solution for incubation was changed from chromium chloride to aluminum chloride, and for a control not formulated with chromium chloride. Also, another test was conducted in the same manner, except that the metal compound added to the solution for incubation was replaced with 80 μg/mL chromium chloride and 80 μg/mL aluminum chloride (chromium chloride and aluminum chloride coexisted). Measurement results of fluorescence intensity and the quantitative ratio of the transthyretin tetramer and the transthyretin monomer are shown in FIG. 1.

Compound	decomposition from the transthyretin tetramer to the transthyretin monomer	decomposition from the transthyretin tetramer to the transthyretin monomer (listed as aluminum)
[Cl][Cr]([Cl])[Cl] [trivalent chromium ion, chromium chloride]	inhibit the reaction of decomposing the transthyretin tetramer to produce the monomer	–
[Cl][Al]([Cl])[Cl] [aluminum ion, aluminum chloride]	promote the reaction of decomposing the transthyretin tetramer to the monomer	promote the decomposition
